Assay results as given in patent US6525001B1, “Substituted pyrimidine and pyridine herbicides” (Mid-American Commercialization Corporation, priority 1997, dated 2003).

How the values were obtained:
Type in all cases: in vivo
[1] = test system: lambsquarters (Chenopodium album); test: Test C; set-up: key: 0 was no effect; 100 was complete control; settings: PREEMERGENCE
rape (Brassica napus) = test: Test B pre-/postemergence; set-up: key: 0 is no effect; 10 is complete control
How it was run: (§1)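 Seeds were planted and sprayed preemergence, while plants at 2 to 18 cm (1- to 4-leaf stage) were sprayed postemergence at the same time, with test chemical in a non-phytotoxic solvent mixture containing surfactant. After twelve to sixteen days in a greenhouse, injury was rated visually against untreated controls on a 0–10 scale.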

soybean (Glycine max) = test: Test B pre-/postemergence; set-up: key: 0 is no effect; 10 is complete control
How it was run: as §1

[2] = test system: eastern black nightshade (Solanum ptycanthum); test: Test C; settings: PREEMERGENCE
[3] = test system: wild poinsettia (Euphorbia heterophylla); test: Test C; set-up: key: 0 was no effect; 100 was complete control; settings: PREEMERGENCE
[4] = test system: bamyardgrass (Echinochloa crus-galli); test: Test B flood test; set-up: key: 0 is no effect; 10 is complete control
How it was run: (§2)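 Plants were grown to the 2-leaf stage before treatment with test chemical, then held in a greenhouse for twelve to sixteen days. Injury was visually rated against untreated controls on a 0–10 scale, where 0 is no effect and 10 is complete control.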

[5] = test system: duck salad (Heteranthera limosa); test: Test B flood test; set-up: key: 0 is no effect; 10 is complete control
How it was run: as §2

[6] = test system: smallflower flatsedge (Cyperus difformis); test: Test B flood test; set-up: key: 0 is no effect; 10 is complete control
How it was run: as §2

rice (Oryza sativa) = test: Test B flood test; set-up: key: 0 is no effect; 10 is complete control
How it was run: as §2

[7] = test system: field bindweed (Convolvulus arvensis); test: Test C; settings: PREEMERGENCE
[8] = test system: surinam grass (Brachiaria decumbens); test: Test C; set-up: key: 0 was no effect; 100 was complete control; settings: PREEMERGENCE
[9] = test system: cotton (Gossypium hirsutum); test: Test C; set-up: key: 0 was no effect; 100 was complete control; settings: PREEMERGENCE
[10] = test system: giant foxtail (Setaria faberii); test: Test C; set-up: key: 0 was no effect; 100 was complete control; settings: PREEMERGENCE
[11] = Rate 62 g/ha, Postemergence (flood test)
[12] = Rate 125 g/ha, Postemergence, flood test
[13] = Rate 250 g/ha, Postemergence (flood test species)
[14] = Preemergence, Rate 62 g/ha, scale of 0 to 10
[15] = Rate 125 g/ha, Postemergence section (flood test species)

Cc1cnc(-c2ccc(C(F)(F)F)cc2)nc1C(Cl)c1cccc(C(F)(F)F)c1 (racemic) [Compound 21]
Plant response rating, Lambsquarters ([1]; Rate 35 g/ha): 0
Plant response rating, Lambsquarters ([1]; Rate 70 g/ha): 5
Plant response rating, Lambsquarters ([1]; Rate 140 g/ha): 90
Plant response rating, Rape (rape (Brassica napus); Rate 62 g/ha, Postemergence): 9
Rape plant response rating (rape (Brassica napus); Rate 62 g/ha, Preemergence): 2
Plant response rating, Rape (rape (Brassica napus); Rate 125 g/ha, Postemergence): 10
Rape plant response rating (rape (Brassica napus); Rate 125 g/ha, Preemergence): 3
Plant response rating, Rape (rape (Brassica napus); Rate 250 g/ha, Postemergence): 10
Plant response rating, Rape (rape (Brassica napus); Rate 250 g/ha, Preemergence): 5
Plant response rating, Soybean (soybean (Glycine max); Rate 62 g/ha, Postemergence): 6
Soybean plant response rating (soybean (Glycine max); Rate 62 g/ha, Preemergence): 0
Plant response rating, Soybean (soybean (Glycine max); Rate 125 g/ha, Postemergence): 6
Soybean plant response rating (soybean (Glycine max); Rate 125 g/ha, Preemergence): 0
Plant response rating, Soybean (soybean (Glycine max); Rate 250 g/ha, Postemergence): 6
Plant response rating, Soybean (soybean (Glycine max); Rate 250 g/ha, Preemergence): 0
Plant response rating, E. blacknightsh ([2]; Rate 35 g/ha): 40
Plant response rating, E. blacknightsh ([2]; Rate 70 g/ha): 80
Plant response rating, E. blacknightsh ([2]; Rate 140 g/ha): 85
Plant response rating, Wild poinsettia ([3]; Rate 35 g/ha): 0
Plant response rating, Wild poinsettia ([3]; Rate 70 g/ha): 5
Plant response rating, Wild poinsettia ([3]; Rate 140 g/ha): 5
Plant response rating, Barnyardgrass [4, 11]: 3
Plant response rating, Barnyardgrass [4, 12]: 4
Plant response rating, Barnyardgrass [4, 13]: 4
Plant response rating, Ducksalad [5, 11]: 3
Plant response rating, Ducksalad [5, 12]: 4
Plant response rating, Ducksalad [5, 13]: 5
Plant response rating, S. Flatsedge [6, 11]: 6
Plant response rating, S. Flatsedge [6, 12]: 8
Plant response rating, S. Flatsedge [6, 13]: 9
Plant response rating, Rice (rice (Oryza sativa); [11]): 3
Plant response rating, Rice (rice (Oryza sativa); [12]): 4
Plant response rating, Rice (rice (Oryza sativa); [13]): 5
Plant response rating, Field bindweed ([7]; Rate 70 g/ha): 40
Plant response rating, Field bindweed ([7]; Rate 140 g/ha): 40
Plant response rating, Surinam grass ([8]; Rate 35 g/ha): 0
Plant response rating, Surinam grass ([8]; Rate 70 g/ha): 5
Plant response rating, Surinam grass ([8]; Rate 140 g/ha): 10
Plant response rating, Cotton ([9]; Rate 35 g/ha): 0
Plant response rating, Cotton ([9]; Rate 70 g/ha): 5
Plant response rating, Cotton ([9]; Rate 140 g/ha): 20
Plant response rating, Giant foxtail ([10]; Rate 35 g/ha): 85
Plant response rating, Giant foxtail ([10]; Rate 70 g/ha): 100
Plant response rating, Giant foxtail ([10]; Rate 140 g/ha): 100

Cc1cnc(-c2ccc(C(F)(F)F)cc2)nc1C(=O)c1cccc(OC(F)(F)F)c1 [Compound 75]
Plant response rating, Rape (rape (Brassica napus); [14]): 2
Rape plant response rating (rape (Brassica napus); Rate 62 g/ha, Postemergence): 5
Rape plant response rating (rape (Brassica napus); Rate 125 g/ha, Postemergence): 7
Plant response rating, Rape (rape (Brassica napus); Rate 125 g/ha, Preemergence): 3
Plant response rating, Rape (rape (Brassica napus); Rate 250 g/ha, Postemergence): 9
Plant response rating, Rape (rape (Brassica napus); Rate 250 g/ha, Preemergence): 4
Plant response rating, Rape (rape (Brassica napus); Rate 500 g/ha, Preemergence): 4
Plant response rating, Soybean (soybean (Glycine max); [14]): 0
Soybean plant response rating (soybean (Glycine max); Rate 62 g/ha, Postemergence): 3
Soybean plant response rating (soybean (Glycine max); Rate 125 g/ha, Postemergence): 3
Plant response rating, Soybean (soybean (Glycine max); Rate 125 g/ha, Preemergence): 0
Plant response rating, Soybean (soybean (Glycine max); Rate 250 g/ha, Postemergence): 3
Plant response rating, Soybean (soybean (Glycine max); Rate 250 g/ha, Preemergence): 0
Plant response rating, Soybean (soybean (Glycine max); Rate 500 g/ha, Preemergence): 1
Barnyardgrass plant response rating [4, 11]: 2
Barnyardgrass plant response rating [4, 15]: 2
Plant response rating, Barnyardgrass [4, 13]: 3
Ducksalad plant response rating [5, 11]: 0
Ducksalad plant response rating [5, 15]: 1
Plant response rating, Ducksalad [5, 13]: 2
S. Flatsedge plant response rating [6, 11]: 0
S. Flatsedge plant response rating [6, 15]: 0
Plant response rating, S. Flatsedge [6, 13]: 1
Rice plant response rating (rice (Oryza sativa); [11]): 1
Rice plant response rating (rice (Oryza sativa); [15]): 1
Plant response rating, Rice (rice (Oryza sativa); [13]): 1
